From paper PMC12475274, “Harnessing indole scaffolds to identify small-molecule IRE1α inhibitors modulating XBP1 mRNA splicing” (Nature Communications, 2025)
pIC50: −log10 of the molar value. Several values for one entry are separate records, joined by “and”; a condition that tells them apart may be missing. Identical values can stand only once. Like-named read-outs stand apart in the source and are kept apart here. One block for each compound: values may come before it.

Legend:
[1] = target: T1, dephosphorylated IRE1α (547–977) (Homo sapiens, UniProt O75460); test: FRET-based IRE1α RNase activity assay, dephosphorylated IRE1α; format: biochemical
T1 construct: Human IRE1α kinase and RNase domain (residues 547–977) was subcloned into pLIB plasmid; His tag (with TEV cleavage site) (N, cleaved yes); made in house; host or cells: Sf9 insect cells, baculovirus (Bac-to-Bac)
Description: (§1) Human IRE1α kinase and RNase domain (residues 547–977) was subcloned into pLIB plasmid with a His tag and TEV cleavage site, and expressed using Bac-to-Bac expression system. The primers used are listed in Supplementary Table S3. The protein purification was performed following established procedures. Briefly, Sf9 cells were infected with baculovirus and incubated at 27 °C 110 rpm for 72 h. The cells were collected by centrifugation at 4000 × g for 15 min and the cell pellet was resuspended in lysis buffer (50 mM HEPES pH 7.5, 300 mM NaCl, 10% glycerol, 1 mM MgCl2, 1 mM TCEP, 5 mM imidazole), then supplemented with 1:10,000 benzonase (Sigma, E1014), 1 tablet/25 mL […]™ Protease Inhibitor Cocktail tablets (Sigma, S8830) and 1 mM PMSF before lysed by sonication at 4 °C. […] The protein elution was incubated with TEV protease to remove His tag at 4 °C overnight. Then the sample was diluted 1:6 in buffer (50 mM HEPES pH 7.5, 1 mM TCEP, 5% glycerol) and loaded onto a 5 mL pre-packaged Q HP anion exchange column (Cytiva, HiTrap Q HP) pre-equilibrated with QA buffer (50 mM HEPES pH 7.5, 50 mM NaCl, 1 mM TCEP, 5% glycerol). The unphosphorylated and phosphorylated protein was separated by eluting the protein with a very shallow gradient with 0-30% buffer QB (50 mM HEPES pH 7.5, 1 M NaCl, 1 mM TCEP, 5% glycerol) over 80 CV. Different peaks were collected separately and verified by LC-MS. The fully phosphorylated fraction was collected and further purified by size exclusion chromatography (Cytiva, HiLoad 16/600 Superdex 200 pg,) with SEC buffer (25 mM HEPES pH 7.5, 250 mM NaCl, 1 mM TCEP, 10% glycerol) and fractioned as monomeric peak. The rest protein fraction from the Q HP anion exchange column was incubated with Lambda protein phosphatase (New England BioLabs, P0753S) overnight at 4 °C, the dephosphorylation was confirmed by LC-MS. The unphosphorylated protein was further purified by size exclusion chromatography with the SEC buffer described above. The purified phosphorylated (p-IRE1α) and dephosphorylated (IRE1α) protein aliquots were stored at −80 °C for future usage.
The dual-labeled RNA substrate with a FAM at 5’ and the BHQ-1 at 3’ containing the XBP1 sequence (5′FAM-[…]-3′BHQ1) was purchased from Integrated DNA Technologies (IDT). The FRET-based IRE1α RNase activity assay was carried out in reaction buffer containing 20 mM HEPES pH 7.5, 50 mM KOAc, 1 mM MgOAc2, 1 mM DTT, 0.05% v/v TritonX-100, at a total reaction volume of 20 μL in a 384-well black plate (4514, Corning). For unphosphorylated IRE1α (IRE1α), a final concentration of 40 nM IRE1α protein and 100 nM RNA substrate was used. For phosphorylated IRE1 (p-IRE1α), a final concentration of 4 nM p-IRE1α protein and 200 nM RNA substrate was used. The indicated compound and IRE1α protein were incubated for 30 min at room temperature before the substrate was added to the reaction. The plate was then kinetically read over one hour at room temperature using a TECAN Spark plate reader. The measurement was carried out using the fluorescence top reading mode at the excitation wavelength of 485 nm and the emission wavelength of 535 nm with a 10 nm excitation and emission bandwidth. The linear part of the reaction curve was adopted and fitted with sample linear regression to obtain the slope, and the slope was adopted to reflect the reaction rate. The inhibition % was calculated by using the equation: inhibition% = 100 × (slope of DMSO control – slope of the sample)/(slope of DMSO control – slope of blank control), DMSO control: DMSO with protein and RNA substrate; Blank control: DMSO with RNA substrate. The IC50 values were calculated using the concentration-response model in GraphPad Prism 9. […]

[2] = target: T2, phosphorylated IRE1α (p-IRE1α) (Homo sapiens, UniProt O75460); test: FRET-based IRE1α RNase activity assay, phosphorylated IRE1α; format: biochemical
T2 construct: Human IRE1α kinase and RNase domain (residues 547–977) was subcloned into pLIB plasmid; His tag (with TEV cleavage site) (N, cleaved yes); made in house; host or cells: Sf9 insect cells, baculovirus (Bac-to-Bac)
Description: as §1
The dual-labeled RNA substrate with a FAM at 5’ and the BHQ-1 at 3’ containing the XBP1 sequence (5′FAM-[…]-3′BHQ1) was purchased from Integrated DNA Technologies (IDT). The FRET-based IRE1α RNase activity assay was carried out in reaction buffer containing 20 mM HEPES pH 7.5, 50 mM KOAc, 1 mM MgOAc2, 1 mM DTT, 0.05% v/v TritonX-100, at a total reaction volume of 20 μL in a 384-well black plate (4514, Corning). For unphosphorylated IRE1α (IRE1α), a final concentration of 40 nM IRE1α protein and 100 nM RNA substrate was used. For phosphorylated IRE1 (p-IRE1α), a final concentration of 4 nM p-IRE1α protein and 200 nM RNA substrate was used. The indicated compound and IRE1α protein were incubated for 30 min at room temperature before the substrate was added to the reaction. The plate was then kinetically read over one hour at room temperature using a TECAN Spark plate reader. The measurement was carried out using the fluorescence top reading mode at the excitation wavelength of 485 nm and the emission wavelength of 535 nm with a 10 nm excitation and emission bandwidth. The linear part of the reaction curve was adopted and fitted with sample linear regression to obtain the slope, and the slope was adopted to reflect the reaction rate. The inhibition % was calculated by using the equation: inhibition% = 100 × (slope of DMSO control – slope of the sample)/(slope of DMSO control – slope of blank control), DMSO control: DMSO with protein and RNA substrate; Blank control: DMSO with RNA substrate. The IC50 values were calculated using the concentration-response model in GraphPad Prism 9.

[3] = FRET assay, RNase activity, mean (± SEM), read-out: IRE1α IC50
[4] = FRET assay, source data, unit from Fig. 3 / sheet Fig. 2b, read-out: IRE1a IC50, individual replicates (n1-n4)
[5] = FRET assay, RNase activity, mean (± SEM), read-out: p-IRE1α IC50
[6] = FRET assay, source data, unit from Fig. 3, read-out: p-IRE1a IC50, individual replicates (n1-n4)

T1 sequence (O75460 547-977): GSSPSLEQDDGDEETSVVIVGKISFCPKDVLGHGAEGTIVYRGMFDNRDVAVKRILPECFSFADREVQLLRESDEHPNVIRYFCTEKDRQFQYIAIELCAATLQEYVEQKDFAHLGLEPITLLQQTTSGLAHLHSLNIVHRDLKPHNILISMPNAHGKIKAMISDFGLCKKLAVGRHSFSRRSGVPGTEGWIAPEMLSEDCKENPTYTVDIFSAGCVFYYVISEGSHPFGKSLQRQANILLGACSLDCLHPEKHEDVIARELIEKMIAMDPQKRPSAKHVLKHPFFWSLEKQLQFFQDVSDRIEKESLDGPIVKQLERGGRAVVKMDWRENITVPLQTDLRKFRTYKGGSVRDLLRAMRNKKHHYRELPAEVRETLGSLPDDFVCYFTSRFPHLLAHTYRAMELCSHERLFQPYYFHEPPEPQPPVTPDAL
T2 sequence (O75460 547-977): as above

pIC50 [1, 3]: 6.62 | pIC50 [1, 4]: 6.64 and 6.70 and 6.53 | pIC50 [2, 5]: 6.70 | IC50 [2, 6]: 205 nM (2×) and 190 nM
SMILES: Cc1c(CCC(=O)O)c2cc(C(C)C)ccc2n1C(=O)c1ccccc1 [IA110]

pIC50 [1, 3]: 5.21 | pIC50 [1, 4]: 5.26 and 5.16 | pIC50 [2, 5]: 4.55 | pIC50 [2, 6]: 4.46 and 4.66
SMILES: Cc1c(CCC(=O)O)c2cc(-c3ccccc3C#N)ccc2n1C(=O)c1ccccc1 [IA159]

pIC50 ([1]; IRE1a, individual replicates (n1-n4), Supplementary Fig. 2b, 2c, read-out: IC50): 5.71 and 5.48 and 5.98 | pIC50 ([1]; IRE1a, mean, Supplementary Fig. 2b, 2c, read-out: IC50, mean): 5.68 | pIC50 ([2]; p-IRE1a, individual replicates (n1-n3), Supplementary Fig. 2b, 2c, read-out: IC50): 5.35 and 5.96 | pIC50 ([2]; p-IRE1a, mean, Supplementary Fig. 2b, 2c, read-out: IC50, mean): 5.56
SMILES: Cc1c(CCC(=O)O)c2ccccc2n1C(=O)c1cccs1 [IA42]

Second part, the compound before the results:

SMILES: Cc1c(CCC(=O)O)c2cc(Br)ccc2n1C(=O)C1CCCCC1 [IA165]
effect on IRE1α RNase activity in the FRET assay [1]: decreased the inhibitory activity | inhibition at 0.617284 µM ([1]; IRE1a, 0.617284 μM): 36.9% | inhibition(%) ([1]; IRE1a, 0.617284 μM): 46.932% and 53.398% and 47.875% | inhibition at 1.85185 µM ([1]; IRE1a, 1.85185 μM): 53.7% | inhibition(%) ([1]; IRE1a, 1.85185 μM): 60.820% and 65.775% and 59.822% | inhibition at 5.55556 µM ([1]; IRE1a, 5.55556 μM): 76% | inhibition(%) ([1]; IRE1a, 5.55556 μM): 76.919% and 67.673% and 77.366% | inhibition(%) ([1]; IRE1a, 16.6667 μM): 82.061% and 76.393% and 74.507% | inhibition at 16.6667 µM ([1]; IRE1a, 16.6667 μM, read-out: inhibition(%)): 75.9% | inhibition(%) ([1]; IRE1a, 50 μM): 53.077% and 49.468% and 70.447% and 68.706% | inhibition(%) ([2]; p-IRE1a, 0.000847 μM): -0.707% and 0.787% and -7.504% and -5.865% | inhibition(%) ([2]; p-IRE1a, 0.00254 μM): -6.491% and -3.358% and -4.226% and 3.246% | inhibition(%) ([2]; p-IRE1a, 0.007621 μM): -0.418% and -0.611% and -4.226% and 0.305% | inhibition(%) ([2]; p-IRE1a, 0.068587 μM): 0.450% and 2.715% and -3.792% and 0.305% | inhibition(%) ([2]; p-IRE1a, 0.205761 μM): 1.992% and 4.885% and 4.065% and 5.463% | inhibition at 1.85185 µM ([2]; p-IRE1a, 1.85185 μM): 34% | inhibition(%) ([2]; p-IRE1a, 1.85185 μM): 36.843% and 31.203% and 36.891% | inhibition at 5.55556 µM ([2]; p-IRE1a, 5.55556 μM): 58.9% | inhibition(%) ([2]; p-IRE1a, 5.55556 μM): 56.028% and 61.836% and 59.894% | inhibition at 16.6667 µM ([2]; p-IRE1a, 16.6667 μM): 90.7% | inhibition(%) ([2]; p-IRE1a, 16.6667 μM): 88.753% and 83.846% and 83.803% | inhibition(%) ([2]; p-IRE1a, 50 μM): 95.227% and 95.680% and 96.051% | inhibition at 50 µM ([2]; p-IRE1a, 50 μM, read-out: inhibition(%)): 94.7%

SMILES: COc1ccc2c(c1)c(CCC(=O)O)c(C)n2C(=O)c1ccc2c(c1)C(=O)c1ccccc1C2=O [IA32]
pIC50 [1, 3]: 6.12 | pIC50 [1, 4]: 6.23 and 6.01 and 5.96 and 6.42 | pIC50 [2, 5]: 6.21 | pIC50 [2, 6]: 5.97 and 6.23 and 6.80

SMILES: Cc1c(CCC(=O)O)c2cc(-c3ccc(C(F)(F)F)cc3)ccc2n1C(=O)c1ccccc1 [IA145]
pIC50 [1, 3]: 4.87 | pIC50 [1, 4]: 4.85 and 4.92 | pIC50 [2, 5]: 4.36 | pIC50 [2, 6]: 4.39 and 4.33 and 4.38

SMILES: COc1ccc2c(c1)c(CCC(=O)O)c(C)n2C(=O)c1ccncc1 [IA93]
pIC50 [1, 3]: 6.74 | pIC50 [1, 4]: 6.85 and 6.68 and 6.70 | pIC50 [2, 5]: 6.47 | pIC50 [2, 6]: 6.70 and 6.37 and 6.39

SMILES: COc1ccc2c(c1)c(Cc1ccc(O)cc1)c(C)n2C(=O)c1ccc(Cl)cc1 [cms10]
inhibition at 50 µM ([1]; FRET assay at 50 μM, mean (± SEM), read-out: IRE1α inhibition%): < 30% | inhibition at 50 µM ([2]; FRET assay at 50 μM, mean (± SEM), read-out: p-IRE1α inhibition%): < 30%
